We go through 16 molecules from US20250122219A1 (priority 2023, published 2025).

Series [1] is described as follows: Cytotoxicity assay in MT-4 cells. In kind it is cell-based. Conditions: human; uninfected MT-4 cells, 5 days incubation, Cell Titer Glo; read-out: MT4 CC50. In outline: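 Viability read by Cell Titer Glo luminescence after 5 days at 37 °C. MT-4 cells, not infected, in complete RPMI (10% FBS), received compound dilution series. Base cytotoxicity set with […] puromycin.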

Series [2] relates to HIV-1 (IIIB). Kind of series: Antiviral assay in MT-4 cells. In kind it is cell-based. Particulars: Human immunodeficiency virus 1, MT4, 120 h; HIV-1 IIIB in MT-4 cells, 5 days incubation, Cell Titer Glo; read-out: MT4 EC50. In outline:
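Read-out: CellTiter-Glo luminescence after 5 days at 37 °C, reflecting survival of MT-4 cells infected with HIV-1 IIIB (1:250 fresh stock dilution) versus mock-infected. Compounds serially diluted into RPMI with 10% FBS; AZT at 5 μM served as positive control.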
A general note: Cellular ATP, detected with luciferase, serves as a proxy for viable cell number.

pEC50: −log10 of the molar value.

With `CCCCCCCCCOC(=O)OCOc1c2n(cc(C(=O)NCc3ccc(F)cc3F)c1=O)[C@@H]1CN(C2=O)[C@@H](C)CC[C@]12CC(C)=NO2` [Example 186, (((3′S,5S,7′R)-10′-((2,4-difluorobenzyl)carbamoyl)-3,3′-dimethyl-1′,11′-dioxo-1′,4′,5′,11′-tetrahydro-3′H,4H,7′H-spiro[isoxazole-5,6′-[2,7]methanopyrido[1,2-a][1,4]diazonin]-12′-yl)oxy)methyl nonyl carbonate], the CC50 (in general, the concentration that lowers cell viability or growth by half) at 5 days in series [1] is not below 50000 nM. The pEC50 – broadly, the EC50 on a negative log10 scale, so that one unit is a factor of ten – in series [2] is 8.65.
As for `CCCCCCCCCOC(=O)OCOc1c2n(cc(C(=O)NCc3ccc(F)cc3F)c1=O)[C@@H]1CN(C2=O)[C@@H](C)CC[C@]12CC(OC)=NO2` [Example 187, (((3′S,5S,7′R)-10′-((2,4-difluorobenzyl)carbamoyl)-3-methoxy-3′-methyl-1′,11′-dioxo-1′,4′,5′,11′-tetrahydro-3′H,4H,7′H-spiro[isoxazole-5,6′-[2,7]methanopyrido[1,2-a][1,4]diazonin]-12′-yl)oxy)methyl nonyl carbonate], the CC50 at 5 days in series [1] stood at 43900 nM. Further, the pEC50 in series [2] is 8.49.
With `CCCCCCCCCCOC(=O)OCOc1c2n(cc(C(=O)NCc3ccc(F)cc3F)c1=O)[C@@H]1CN(C2=O)[C@@H](C)CC[C@]12CC(C)=NO2` [Example 188, decyl ((((3′S,5S,7′R)-10′-((2,4-difluorobenzyl)carbamoyl)-3,3′-dimethyl-1′,11′-dioxo-1′,4′,5′,11′-tetrahydro-3′H,4H,7′H-spiro[isoxazole-5,6′-[2,7]methanopyrido[1,2-a][1,4]diazonin]-12′-yl)oxy)methyl) carbonate], in series [1], the CC50 at 5 days came to 38500 nM. Besides, the pEC50 in series [2] is 8.81.
The corresponding values for `CCCCCCCCCCOC(=O)OCOc1c2n(cc(C(=O)NCc3ccc(F)cc3F)c1=O)[C@@H]1CN(C2=O)[C@@H](C)CC[C@]12CC(OC)=NO2` [Example 189, decyl ((((3′S,5S,7′R)-10′-((2,4-difluorobenzyl)carbamoyl)-3-methoxy-3′-methyl-1′,11′-dioxo-1′,4′,5′,11′-tetrahydro-3′H,4H,7′H-spiro[isoxazole-5,6′-[2,7]methanopyrido[1,2-a][1,4]diazonin]-12′-yl)oxy)methyl) carbonate] are not below 50000 nM and 8.45.
On to `CCCCCCCCCCCCOC(=O)OCOc1c2n(cc(C(=O)NCc3ccc(F)cc3F)c1=O)[C@@H]1CN(C2=O)[C@@H](C)CC[C@]12CC(C)=NO2` [Example 190, (((3′S,5S,7′R)-10′-((2,4-difluorobenzyl)carbamoyl)-3,3′-dimethyl-1′,11′-dioxo-1′,4′,5′,11′-tetrahydro-3′H,4H,7′H-spiro[isoxazole-5,6′-[2,7]methanopyrido[1,2-a][1,4]diazonin]-12′-yl)oxy)methyl dodecyl carbonate], for which the CC50 at 5 days in series [1] was not below 50000 nM. Also, in series [2], the pEC50 was 9.31.
Regarding `CCCCCCCCCCCCOC(=O)OCOc1c2n(cc(C(=O)NCc3ccc(F)cc3F)c1=O)[C@@H]1CN(C2=O)[C@@H](C)CC[C@]12CC(OC)=NO2` [Example 191, (((3′S,5S,7′R)-10′-((2,4-difluorobenzyl)carbamoyl)-3-methoxy-3′-methyl-1′,11′-dioxo-1′,4′,5′,11′-tetrahydro-3′H,4H,7′H-spiro[isoxazole-5,6′-[2,7]methanopyrido[1,2-a][1,4]diazonin]-12′-yl)oxy)methyl dodecyl carbonate], the CC50 at 5 days in series [1] was not below 50000 nM. The pEC50 in series [2] was 8.78.
`CCCCCCCCCCCCCCCCOC(=O)OCOc1c2n(cc(C(=O)NCc3ccc(F)cc3F)c1=O)[C@@H]1CN(C2=O)[C@@H](C)CC[C@]12CC(C)=NO2` [Example 194, (((3′S,5S,7′R)-10′-((2,4-difluorobenzyl)carbamoyl)-3,3′-dimethyl-1′,11′-dioxo-1′,4′,5′,11′-tetrahydro-3′H,4H,7′H-spiro[isoxazole-5,6′-[2,7]methanopyrido[1,2-a][1,4]diazonin]-12′-yl)oxy)methyl hexadecyl carbonate]: in series [1], the CC50 at 5 days is not below 50000 nM. In series [2], the pEC50 is 7.78.
As to `CCCCCCCCCCCCCCCCOC(=O)OCOc1c2n(cc(C(=O)NCc3ccc(F)cc3F)c1=O)[C@@H]1CN(C2=O)[C@@H](C)CC[C@]12CC(OC)=NO2` [Example 195, (((3′S,5S,7′R)-10′-((2,4-difluorobenzyl)carbamoyl)-3-methoxy-3′-methyl-1′,11′-dioxo-1′,4′˜5′,11′-tetrahydro-3′H,4H,7′H-spiro[isoxazole-5,6′-[2,7]methanopyrido[1,2-a][1,4]diazonin]-12′-yl)oxy)methyl hexadecyl carbonate], the CC50 at 5 days in series [1] was not below 50000 nM. Further, in series [2], the pEC50 is 7.47.
On to `CCCCCCCCCCCCCCCCCCOC(=O)OCOc1c2n(cc(C(=O)NCc3ccc(F)cc3F)c1=O)[C@@H]1CN(C2=O)[C@@H](C)CC[C@]12CC(C)=NO2` [Example 196, (((3′S,5S,7′R)-10′-((2,4-difluorobenzyl)carbamoyl)-3,3′-dimethyl-1′,11′-dioxo-1′,4′,5′,11′-tetrahydro-3′H,4H,7′H-spiro[isoxazole-5,6′-[2,7]methanopyrido[1,2-a][1,4]diazonin]-12′-yl)oxy)methyl octadecyl carbonate], for which the CC50 at 5 days in series [1] is not below 50000 nM. Moreover, the pEC50 in series [2] is 7.73.
Take `CCCCCCCCCCCCCCCCCCOC(=O)OCOc1c2n(cc(C(=O)NCc3ccc(F)cc3F)c1=O)[C@@H]1CN(C2=O)[C@@H](C)CC[C@]12CC(OC)=NO2` [Example 197, (((3′S,5S,7′R)-10′-((2,4-difluorobenzyl)carbamoyl)-3-methoxy-3′-methyl-1′,11′-dioxo-1′,4′,5′,11′-tetrahydro-3′H,4H,7′H-spiro[isoxazole-5,6′-[2,7]methanopyrido[1,2-a][1,4]diazonin]-12′-yl)oxy)methyl octadecyl carbonate]: in series [1], the CC50 at 5 days was not below 50000 nM. For the same molecule, the pEC50 in series [2] is 7.38.
For the molecule `COC1=NO[C@@]2(CC[C@H](C)N3C[C@H]2n2cc(C(=O)NCc4ccc(F)cc4F)c(=O)c(OCOC(=O)OC(C)C)c2C3=O)C1` [Example 198, (((3′S,5S,7′R)-10′-((2,4-difluorobenzyl)carbamoyl)-3-methoxy-3′-methyl-1′,11′-dioxo-1′,4′,5′,11′-tetrahydro-3′H,4H,7′H-spiro[isoxazole-5,6′-[2,7]methanopyrido[1,2-a][1,4]diazonin]-12′-yl)oxy)methyl isopropyl carbonate], the CC50 at 5 days in series [1] is not below 50000 nM. Further, in series [2], the pEC50 is 8.20.
Take `CC1=NO[C@@]2(CC[C@H](C)N3C[C@H]2n2cc(C(=O)NCc4ccc(F)cc4F)c(=O)c(OCOC(=O)OCC(C)C)c2C3=O)C1` [Example 199, (((3′S,5S,7′R)-10′-((2,4-difluorobenzyl)carbamoyl)-3,3′-dimethyl-1′,11′-dioxo-1′,4′,5′,11′-tetrahydro-3′H,4H,7′H-spiro[isoxazole-5,6′-[2,7]methanopyrido[1,2-a][1,4]diazonin]-12′-yl)oxy)methyl isobutyl carbonate]: the CC50 at 5 days in series [1] came to 15500 nM. Further, in series [2], the pEC50 was 8.41.
For `COC1=NO[C@@]2(CC[C@H](C)N3C[C@H]2n2cc(C(=O)NCc4ccc(F)cc4F)c(=O)c(OCOC(=O)OCC(C)C)c2C3=O)C1` [Example 200, (((3′S,5S,7′R)-10′-((2,4-difluorobenzyl)carbamoyl)-3-methoxy-3′-methyl-1′,11′-dioxo-1′,4′,5′,11′-tetrahydro-3′H,4H,7′H-spiro[isoxazole-5,6′-[2,7]methanopyrido[1,2-a][1,4]diazonin]-12′-yl)oxy)methyl isobutyl carbonate], in that order: 15200 nM and 8.72.
As for `CC1=NO[C@@]2(CC[C@H](C)N3C[C@H]2n2cc(C(=O)NCc4ccc(F)cc4F)c(=O)c(OCOC(=O)OCCC(C)C)c2C3=O)C1` [Example 201, (((3′S,5S,7′R)-10′-((2,4-difluorobenzyl)carbamoyl)-3,3′-dimethyl-1′,11′-dioxo-1′,4′,5′,11′-tetrahydro-3′H,4H,7′H-spiro[isoxazole-5,6′-[2,7]methanopyrido[1,2-a][1,4]diazonin]-12′-yl)oxy)methyl isopentyl carbonate], the CC50 at 5 days in series [1] worked out at 16900 nM. In addition, the pEC50 in series [2] was 8.35.
For `COC1=NO[C@@]2(CC[C@H](C)N3C[C@H]2n2cc(C(=O)NCc4ccc(F)cc4F)c(=O)c(OCOC(=O)OCCC(C)C)c2C3=O)C1` [Example 202, (((3′S,5S,7′R)-10′-((2,4-difluorobenzyl)carbamoyl)-3-methoxy-3′-methyl-1′,11′-dioxo-1′,4′,5′,11′-tetrahydro-3′H,4H,7′H-spiro[isoxazole-5,6′-[2,7]methanopyrido[1,2-a][1,4]diazonin]-12′-yl)oxy)methyl isopentyl carbonate], in series [1], the CC50 at 5 days was determined as 21600 nM. In addition, the pEC50 in series [2] was 8.57.
Take `CC1=NO[C@@]2(CC[C@H](C)N3C[C@H]2n2cc(C(=O)NCc4ccc(F)cc4F)c(=O)c(OCOC(=O)OCCCC(C)C)c2C3=O)C1` [Example 203, (((3′S,5S,7′R)-10′-((2,4-difluorobenzyl)carbamoyl)-3,3′-dimethyl-1′,11′-dioxo-1′,4′,5′,11′-tetrahydro-3′H,4H,7′H-spiro[isoxazole-5,6′-[2,7]methanopyrido[1,2-a][1,4]diazonin]-12′-yl)oxy)methyl (4-methylpentyl) carbonate]: in series [1], the CC50 at 5 days was found to be 26400 nM. Besides, the pEC50 in series [2] was 8.45.
